The record followed here is patent publication US10004701B2, “Methods and compositions for treating infection” (UNIVERSITY OF ROCHESTER, priority 2012, dated 2018).

Structures can show the parent of a compound that is named as a salt. Where two headings read alike, the source gives them in different places.

Assay in all cases: AK assay 384-well format, Prestwick library screening
The subject of one assay is P. aeruginosa. In kind it is cell-based, Pseudomonas aeruginosa. Conditions: 50 μM final drug concentration; for fold induction at 50 µM: Pseudomonas aeruginosa, 3 h; for AK-based Prestwick Library Screening Results, P. aeruginosa (fold increase in extracellular AK activity): planktonic.
In another assay the test system is K. pneumoniae. It is filed as cell-based, Klebsiella pneumoniae. Conditions: 50 μM final drug concentration; for fold induction at 50 µM: Klebsiella pneumoniae, 3 h; for AK-based Prestwick Library Screening Results, K. pneumoniae (fold increase in extracellular AK activity): planktonic.
The next assay deals with E. faecium. It is filed as cell-based, Enterococcus faecium. Conditions: 50 μM final drug concentration; for fold induction at 50 µM: Enterococcus faecium, 3 h; for AK-based Prestwick Library Screening Results, E. faecium (fold increase in extracellular AK activity): planktonic.
Assay [1] deals with A. baumannii strain 98-37-09. It is filed as cell-based, Acinetobacter baumannii. Conditions: 50 μM final drug concentration; for fold induction at 50 µM: Acinetobacter baumannii, 983709, 3 h; for AK-based Prestwick Library Screening Results, A. baumannii (fold increase in extracellular AK activity): planktonic.
In assay [2] the test system is S. aureus strain USA300-0114. It is filed as cell-based, Staphylococcus aureus. Conditions: 50 μM final drug concentration; for fold induction at 50 µM: Staphylococcus aureus, USA300, 3 h; for AK-based Prestwick Library Screening Results, S. aureus (fold increase in extracellular AK activity): planktonic.
The subject of a further assay is E. cloacae. It is filed as cell-based, Enterobacter cloacae. Conditions: 50 μM final drug concentration; for fold induction at 50 µM: Enterobacter cloacae, 3 h; for AK-based Prestwick Library Screening Results, E. cloacae (fold increase in extracellular AK activity): planktonic.
A further assay has as its system E. coli. It is filed as cell-based, Escherichia coli. Conditions: 50 μM final drug concentration; for fold induction at 50 µM: Escherichia coli, 3 h; for AK-based Prestwick Library Screening Results, E. coli (fold increase in extracellular AK activity): planktonic.
The mark [3] stands for this setting: cutoff for positive-scoring molecules 3-fold increase, read-out: AK-based Prestwick Library Screening Results, P. aeruginosa (fold increase in extracellular AK activity).
[4] abbreviates: cutoff for positive-scoring molecules 3-fold increase, read-out: AK-based Prestwick Library Screening Results, K. pneumoniae (fold increase in extracellular AK activity).
Where [5] appears, read: cutoff for positive-scoring molecules 3-fold increase, read-out: AK-based Prestwick Library Screening Results, E. faecium (fold increase in extracellular AK activity).
The mark [6] stands for this setting: cutoff for positive-scoring molecules 3-fold increase, read-out: AK-based Prestwick Library Screening Results, A. baumannii (fold increase in extracellular AK activity).
The mark [7] stands for this setting: cutoff for positive-scoring molecules 3-fold increase, read-out: AK-based Prestwick Library Screening Results, S. aureus (fold increase in extracellular AK activity).
The mark [8] stands for this setting: cutoff for positive-scoring molecules 3-fold increase, read-out: AK-based Prestwick Library Screening Results, E. cloacae (fold increase in extracellular AK activity).
Where [9] appears, read: cutoff for positive-scoring molecules 3-fold increase, read-out: AK-based Prestwick Library Screening Results, E. coli (fold increase in extracellular AK activity).
Setting [10] is: planktonic P. aeruginosa, 384-well, cutoff for positive-scoring molecules 3-fold increase, read-out: AK-based Prestwick Library Screening Results: P. aeruginosa (increase in extracellular AK activity).
[11] abbreviates: planktonic K. pneumoniae, 384-well, cutoff for positive-scoring molecules 3-fold increase, read-out: AK-based Prestwick Library Screening Results: K. pneumoniae (increase in extracellular AK activity).
Where [12] appears, read: planktonic E. faecium, 384-well, cutoff for positive-scoring molecules 3-fold increase, read-out: AK-based Prestwick Library Screening Results: E. faecium (increase in extracellular AK activity).
Setting [13] is: planktonic A. baumannii, 384-well, cutoff for positive-scoring molecules 3-fold increase, read-out: AK-based Prestwick Library Screening Results: A. baumannii (increase in extracellular AK activity).
Where [14] appears, read: planktonic S. aureus, 384-well, cutoff for positive-scoring molecules 3-fold increase, read-out: AK-based Prestwick Library Screening Results: S. aureus (increase in extracellular AK activity).
[15] abbreviates: planktonic E. cloacae, 384-well, cutoff for positive-scoring molecules 3-fold increase, read-out: AK-based Prestwick Library Screening Results: E. cloacae (increase in extracellular AK activity).
[16] abbreviates: planktonic E. coli, 384-well, cutoff for positive-scoring molecules 3-fold increase, read-out: AK-based Prestwick Library Screening Results: E. coli (increase in extracellular AK activity).

As to `CCCC(C(=O)OCCN(CC)CC)(c1ccccc1)c1ccccc1` [Proadifen hydrochloride], the fold induction at 50 µM in the assay on P. aeruginosa (setting [3]) is 1.1; in the assay on K. pneumoniae (setting [4]), 0.8; in the assay on E. faecium (setting [5]), 1.1; in assay [1] (setting [6]) it was 1.1; in assay [2] (setting [7]), 0.8; in the assay on E. cloacae (setting [8]), 1.7. Moreover, in the assay on E. coli (setting [9]), the fold induction at 50 µM was found to be 1.2.
On to `CCCN1C[C@H](CSC)C[C@@H]2c3cccc4[nH]cc(c34)C[C@H]21` [Pergolide mesylate], for which the fold induction at 50 µM is 1 in the assay on P. aeruginosa (setting [10]); 0.8 in the assay with K. pneumoniae (setting [11]); 1 in the assay on E. faecium (setting [12]); 1.3 in assay [1] (setting [13]); 1 in assay [2] (setting [14]); 1.4 in the assay on E. cloacae (setting [15]). Also, in the assay with E. coli (setting [16]), the fold induction at 50 µM amounted to 1.3.
Take `CCN(CC)CCOC(=O)C(c1ccccc1)C1CCCCC1` (stereo not drawn) [Drofenine hydrochloride]: the fold induction at 50 µM with P. aeruginosa (setting [3]) was found to be 1.2; in the assay with K. pneumoniae (setting [4]), 1.2; with E. faecium (setting [5]), 1; in assay [1] (setting [6]) it was 1.3; in assay [2] (setting [7]), 1.5; in the assay on E. cloacae (setting [8]) it was 1.5. Moreover, the fold induction at 50 µM in the assay on E. coli (setting [9]) was 1.5.
With `CCC(=O)O[C@H]1CC[C@H]2[C@@H]3CCC4=CC(=O)CC[C@]4(C)[C@H]3CC[C@]12C` [Testosterone propionate], the fold induction at 50 µM worked out at 0.4 with P. aeruginosa (planktonic P. aeruginosa, 384-well, […], read-out: AK-based Prestwick Library Screening Results: P. aeruginosa (increase in extracellular AK activity)); 0.4 in the assay with K. pneumoniae (planktonic K. pneumoniae, 384-well, […], read-out: AK-based Prestwick Library Screening Results: K. pneumoniae (increase in extracellular AK activity)); 0.9 in the assay on E. faecium (planktonic E. faecium, 384-well, […], read-out: AK-based Prestwick Library Screening Results: E. faecium (increase in extracellular AK activity)); 0.5 in assay [1] (planktonic A. baumannii, 384-well, […], read-out: AK-based Prestwick Library Screening Results: A. baumannii (increase in extracellular AK activity)); 0.3 in assay [2] (planktonic S. aureus, 384-well, […], read-out: AK-based Prestwick Library Screening Results: S. aureus (increase in extracellular AK activity)); 0.3 with E. cloacae (planktonic E. cloacae, 384-well, […], read-out: AK-based Prestwick Library Screening Results: E. cloacae (increase in extracellular AK activity)). For the same compound, the fold induction at 50 µM in the assay on E. coli (planktonic E. coli, 384-well, […], read-out: AK-based Prestwick Library Screening Results: E. coli (increase in extracellular AK activity)) is 0.5.
For `CN1CCCC(CC2c3ccccc3Sc3ccccc32)C1` (stereo not drawn) [Metixene hydrochloride], the fold induction at 50 µM is 0.8 in the assay with P. aeruginosa (planktonic P. aeruginosa, cutoff for positive-scoring molecules 3-fold increase, read-out: AK-based Prestwick Library Screening Results, P. aeruginosa (increase in extracellular AK activity)); 0.8 with K. pneumoniae (planktonic K. pneumoniae, cutoff for positive-scoring molecules 3-fold increase, read-out: AK-based Prestwick Library Screening Results, K. pneumoniae (increase in extracellular AK activity)); 1 in the assay on E. faecium (planktonic E. faecium, cutoff for positive-scoring molecules 3-fold increase, read-out: AK-based Prestwick Library Screening Results, E. faecium (increase in extracellular AK activity)); 1 in assay [1] (planktonic A. baumannii, cutoff for positive-scoring molecules 3-fold increase, read-out: AK-based Prestwick Library Screening Results, A. baumannii (increase in extracellular AK activity)); 0.7 in assay [2] (planktonic S. aureus, cutoff for positive-scoring molecules 3-fold increase, read-out: AK-based Prestwick Library Screening Results, S. aureus (increase in extracellular AK activity)); 0.8 with E. cloacae (planktonic E. cloacae, cutoff for positive-scoring molecules 3-fold increase, read-out: AK-based Prestwick Library Screening Results, E. cloacae (increase in extracellular AK activity)). Moreover, the fold induction at 50 µM with E. coli (planktonic E. coli, cutoff for positive-scoring molecules 3-fold increase, read-out: AK-based Prestwick Library Screening Results, E. coli (increase in extracellular AK activity)) came out at 0.9.
Regarding `CC(C)(C)C(=O)OCOC(=O)[C@@H]1N2C(=O)[C@@H](NC(=O)[C@H](N)c3ccccc3)[C@H]2SC1(C)C` [Pivampicillin], the fold induction at 50 µM in the assay on P. aeruginosa (planktonic P. aeruginosa, […], read-out: AK-based Prestwick library screening result, P. aeruginosa (fold increase in extracellular AK activity)) is 0.9; in the assay with K. pneumoniae (planktonic K. pneumoniae, […], read-out: AK-based Prestwick library screening result, K. pneumoniae (fold increase in extracellular AK activity)), 0.9; in the assay on E. faecium (planktonic E. faecium, […], read-out: AK-based Prestwick library screening result, E. faecium (fold increase in extracellular AK activity)), 1.1; in assay [1] (planktonic A. baumannii, […], read-out: AK-based Prestwick library screening result, A. baumannii (fold increase in extracellular AK activity)) it was 1.8; in assay [2] (planktonic S. aureus, […], read-out: AK-based Prestwick library screening result, S. aureus (fold increase in extracellular AK activity)), 0.4; in the assay on E. cloacae (planktonic E. cloacae, […], read-out: AK-based Prestwick library screening result, E. cloacae (fold increase in extracellular AK activity)) it was 1.2. In the assay with E. coli (planktonic E. coli, […], read-out: AK-based Prestwick library screening result, E. coli (fold increase in extracellular AK activity)), the fold induction at 50 µM turned out to be 1.5.
For `C[C@]12CCC(=O)C=C1CC[C@@H]1[C@@H]2C(=O)C[C@]2(C)C(=O)CC[C@@H]12` [Adrenosterone], the “AK-based Prestwick Library Screening Results, P. aeruginosa (fold increase in extracellular AK activity)” value in the assay on P. aeruginosa ([…]) was determined as 0.6. The “AK-based Prestwick Library Screening Results, K. pneumoniae (fold increase in extracellular AK activity)” value with K. pneumoniae ([…]) came out at 0.6. Further, the “AK-based Prestwick Library Screening Results, E. faecium (fold increase in extracellular AK activity)” value in the assay with E. faecium ([…]) turned out to be 0.9. For the same compound, the “AK-based Prestwick Library Screening Results, A. baumannii (fold increase in extracellular AK activity)” value in assay [1] ([…]) was 0.8. Further, the “AK-based Prestwick Library Screening Results, S. aureus (fold increase in extracellular AK activity)” value in assay [2] ([…]) is on record as 0.6. The “AK-based Prestwick Library Screening Results, E. cloacae (fold increase in extracellular AK activity)” value with E. cloacae ([…]) is listed as 1.2. For the same compound, the “AK-based Prestwick Library Screening Results, E. coli (fold increase in extracellular AK activity)” value with E. coli ([…]) came out at 0.7.
`CN(C)[C@@H]1C(O)=C(C(N)=O)C(=O)[C@@]2(O)C(O)=C3C(=O)c4c(O)cccc4[C@@](C)(O)[C@H]3C[C@@H]12` [Tetracycline hydrochloride]: the fold induction at 50 µM is 0.5 in the assay on P. aeruginosa (setting [10]); 0.2 with K. pneumoniae (setting [11]); 1 in the assay on E. faecium (setting [12]); 4.4 in assay [1] (setting [13]); 9.2 in assay [2] (setting [14]); 1 with E. cloacae (setting [15]). Further, in the assay with E. coli (setting [16]), the fold induction at 50 µM amounted to 0.8.
As for `C[C@H]1O[C@@H](O[C@H]2CC[C@]3(C=O)[C@H]4CC[C@]5(C)[C@@H](C6=CC(=O)OC6)CC[C@]5(O)[C@@H]4CC[C@]3(O)C2)C[C@H](O)[C@@H]1O` [Helveticoside], the “AK-based Prestwick Library Screening Results, P. aeruginosa (fold increase in extracellular AK activity)” value with P. aeruginosa ([…]) is on record as 0.4. Also, in the assay on K. pneumoniae ([…]), the “AK-based Prestwick Library Screening Results, K. pneumoniae (fold increase in extracellular AK activity)” value amounted to 0.5. Besides, in the assay with E. faecium ([…]), the “AK-based Prestwick Library Screening Results, E. faecium (fold increase in extracellular AK activity)” value worked out at 0.9. Also, in assay [1] ([…]), the “AK-based Prestwick Library Screening Results, A. baumannii (fold increase in extracellular AK activity)” value was found to be 0.4. Besides, in assay [2] ([…]), the “AK-based Prestwick Library Screening Results, S. aureus (fold increase in extracellular AK activity)” value came to 0.4. Further, the “AK-based Prestwick Library Screening Results, E. cloacae (fold increase in extracellular AK activity)” value with E. cloacae ([…]) is reported as 0.4. For the same compound, in the assay on E. coli ([…]), the “AK-based Prestwick Library Screening Results, E. coli (fold increase in extracellular AK activity)” value is 0.5.
